These results are taken from patent US7604975B2, “Glycosylated LPXTGases and uses thereof” (priority 2002, dated 2009).

Molecules are shown by their SMILES. Like-named read-outs stand apart in the source and are kept apart here.

Experiment [1] concerns LPXTGase. The experiment is classed as biochemical, Streptococcus pyogenes. The settings on record: for peptide cleaved, cpm: 40 mM Tris-HCl pH 7.6, 0.1% Brij 35, control 41,530 cpm. How it is done: Enzyme Assay Method: Aliquots (10 μl) were removed from the column fractions and added to 1.5 ml Microfuge tubes. To each tube was added 30 μl of 40 mM Tris-HCl buffer, pH 7.6, containing 0.1% Brij 35, followed by a 10 μl suspension of bead-bound LPXTG-peptide substrate (0.5 to 0.8 μg, 100,000 to 200,000 cpm). The reaction mixture was incubated with vigorous shaking for 60 min at 37° C. After this time, 100 μl of water was added to each tube, and after vortex mixing, the mixture was centrifuged at 10,000 rpm for 5 min to pellet the beads. 100 μl of the supernatant was withdrawn and radioactivity was counted with a gamma counter.
The LPXTGase was exposed to a variety of salts and its activity tested for cleavage of the LPXTG (SEQ ID NO:1)-containing peptide.

A further experiment has as its system trypsin. The experiment is described as follows: Periodate treatment of trypsin, enzyme activity measured. The experiment is classed as biochemical. The settings on record: identical manner (5 mM periodate, pH 6, 4 hrs at 4° C.).
For experiment [2], the system named is LPXTGase. The experiment is described as follows: Periodate treatment of LPXTGase, enzyme activity measured. In kind it is biochemical, Streptococcus pyogenes. The settings on record: 5 mM periodate, 20 mM phosphate buffer pH 6, 4 hrs at 4° C. How it is done:
Carbohydrate composition of LPXTGase. The carbohydrate composition of purified LPXTGase was determined by the Rockefeller University Analytical Service Laboratory using a Waters 490 HPLC system. […] It seemed plausible that the charged amino acids of the enzyme are internalized and the hydrophobic amino acids are located on the exterior surface in view of the fact that the enzyme is likely to be associated with the cell membrane. […] To test this, the enzyme was incubated with 5 mM of periodate in 20 mM phosphate buffer, pH 6, for 4 hrs at 4° C., and enzyme activity was measured.

Where [3] appears, read: 100 mM salt, one hour at 37° C.

On to `[Ca+2].[Cl-].[Cl-]` [Calcium chloride], for which the “% of control (LPXTGase activity)” value in the experiment with LPXTGase [1] came to 23%. Also, the “peptide cleaved, cpm” value in the experiment with LPXTGase [1] (20 mM salt, one hour at 37° C.) is recorded as 9,706 cpm.
The like results for `O=C(O)CN(CCN(CC(=O)O)CC(=O)O)CC(=O)O` [EDTA] were, in that order, 5.2% and 2,147 cpm.
On to `Cl.NO` [Hydroxylamine-HCl], for which, in the experiment with LPXTGase [1], the “% of control (LPXTGase activity)” value stood at 27% and the “effect on LPXTGase activity (general statement)” value is given as “inhibited”. The “peptide cleaved, cpm” value with LPXTGase [1] (setting [3]) is recorded as 11,200 cpm.
Turning to `[Cl-].[Cl-].[Mg+2]` [Magnesium chloride], in the experiment with LPXTGase [1], the “% of control (LPXTGase activity)” value was 20%. Besides, the “peptide cleaved, cpm” value in the experiment with LPXTGase [1] (20 mM salt, one hour at 37° C.) was 8,615 cpm.
For the compound `[Cl-].[K+]` [Potassium chloride], in the experiment with LPXTGase [1] (setting [3]), the “peptide cleaved, cpm” value is reported as 8,608 cpm and the “% of control (LPXTGase activity)” value was 20%.
With `Cl.Cl.NCCCCN` [Putrescene chloride], in the experiment on LPXTGase [1] (20 mM salt, one hour at 37° C.), the “peptide cleaved, cpm” value is reported as 8,710 cpm and the “% of control (LPXTGase activity)” value is on record as 21%.
With `[Cl-].[Na+]` [Sodium chloride], in the experiment with LPXTGase [1] (setting [3]), the “peptide cleaved, cpm” value was 6,720 cpm and the “% of control (LPXTGase activity)” value came to 16%.
Regarding `O=P(O)(O)O` [Sodium phosphate], the “% of control (LPXTGase activity)” value in the experiment on LPXTGase [1] is listed as 49%. Besides, in the experiment with LPXTGase [1] (20 mM salt, one hour at 37° C.), the “peptide cleaved, cpm” value is listed as 20,646 cpm.
With `O=S(=O)([O-])[O-].[Na+].[Na+]` [Sodium sulfate], in the experiment on LPXTGase [1], the “% of control (LPXTGase activity)” value is reported as 57%. For the same compound, the “peptide cleaved, cpm” value with LPXTGase [1] (20 mM salt, one hour at 37° C.) is 23,454 cpm.
For the compound `[O-][I+3]([O-])([O-])O` [periodate], the “effect of periodate treatment on trypsin enzyme activity” value with trypsin is “no effect”. Moreover, the “effect of periodate treatment on LPXTGase enzyme activity” value with LPXTGase [2] is recorded as “nearly completely abolished the enzyme activity”.
